# Assay results taken from paper PMC11375794, “Discovery of new Hsp90–Cdc37 protein–protein interaction inhibitors: in silico screening and optimization of anticancer activity” (RSC Advances, 2024).
# Experiments:
# wild-type Hsp90 = biological target: wild-type Hsp90; set-up: method as in PMID 31555737; details: cited from earlier work
# leukemia cell line THP-1 = experiment: MTS cell viability (antiproliferative) assay in THP-1; type: cell-based; details: Homo sapiens, THP-1, 72 hours, mean ± SD
# Protocol: (§1) Hormone-positive breast cancer cell line MCF-7 (ATCC-HTB-22; ATCC) was grown in Dulbecco's Modified Eagle's Medium (DMEM), while Ewing sarcoma cell line SK-N-MC (a kind gift from Beat Schäfer) and THP-1 (ATCC-TIB-202; ATCC) cells were grown in Roswell Park Memorial Institute (RPMI) 1640. The medium was supplemented with 10% heat-inactivated fetal bovine serum (Gibco, Thermo Fisher Scientific, Waltham, MA, USA), 100 U per mL penicillin, 100 μg per mL streptomycin, and 2 mM L-glutamine (all from Sigma-Aldrich, St. Louis, MO, USA). All cell lines were incubated at 37 °C in a 5% CO2 atmosphere.
# (§2) The antiproliferative activity of the compounds was evaluated against MCF-7 (ATCC-HTB-22; ATCC), SK-N-MC (a kind gift from Beat Schäfer) and THP-1 (ATCC-TIB-202; ATCC) cancer cell lines using the MTS assay (Promega, Madison, WI, USA). Cells were seeded in 96-well plates at a density of 2 × 10^4 cells per mL in 100 μL of growth medium for THP-1 and were treated with compounds and controls directly, while 3 × 10^3 cells per mL for MCF-7 and SK-N-MC were seeded in 100 μL of growth medium and allowed to adhere overnight following the treatment. In all cases the cells were treated with respective newly prepared compounds, positive controls (17-DMAG for MCF-7 and SK-N-MC; PU-H71 for THP-1) and a vehicle control (0.5% DMSO). The incubation time after treatment was 72 hours, then CellTiter96® Aqueous One Solution Reagent (Promega, Madison, WI, USA) was added to each well. Following a 3 hours incubation, absorbance was measured at 492 nm using BioTek's Synergy™ 4 Hybrid Microplate Reader (Winooski, VT, USA). The measurements were performed in two biological repetitions and each time the experiment was performed in a triplicate. The IC50 values, representing the concentration of inhibitor required for half-maximal inhibition, are the average of three independent experiments and were calculated using GraphPad Prism 9.5.0 software (San Diego, CA, USA).
# [1] = system: MCF-7 breast cancer cell line; experiment: MTS cell viability (antiproliferative) assay in MCF-7; type: cell-based; details: Homo sapiens, MCF7
# Protocol: as §1, §2
# [2] = system: Hsp90 client protein levels (Cdk4, Akt, c-Raf, ERα, IGF1R) and Hsp70, Hsp90 in MCF-7 cells; experiment: Western blot of Hsp90 client proteins and heat shock proteins; type: cell-based; details: MCF-7, 20 μM, 24 hours
# Protocol: MCF-7 cells were treated with compounds 8c (20 μM and 50 μM), 13g (20 μM and 50 μM) and DDO-5936 (20 μM) or 0.5% DMSO as a negative control. The cells were incubated with the compounds or negative control for 24 hours. After incubation, the cells were rinsed with PBS (Gibco, Thermo Fisher Scientific, Waltham, MA, USA) and lysed using RIPA buffer containing 50 mM Tris–HCl pH 7.4, 150 mM NaCl, 1% NP-40, 0.5% sodium deoxycholate, and 1 mM EDTA. The RIPA buffer was further supplemented with Halt™ Protease Inhibitor Cocktail and Halt™ Phosphatase Inhibitor Cocktail (both from Thermo Fisher Scientific, Waltham, MA, USA) at a 1 : 100 dilution. The lysates were then frozen for at least 24 hours. Upon thawing, the lysates were sonicated and centrifuged at 15 000 rpm for 20 minutes at 4 °C. Only the supernatants were collected, and protein concentration was measured using the DC protein assay (Bio-Rad, Hercules, California, USA). Proteins (20 μg) were separated by SDS-PAGE on a 10% acrylamide/bisacrylamide gel, running at 80 V for 15 minutes followed by 130 V for 60 minutes. The separated proteins were then transferred onto a nitrocellulose membrane using the iBlot 2 Dry Blotting System (Thermo Fisher Scientific, Waltham, MA, USA). The membranes were blocked with 5% BSA for 1 hour at room temperature to prevent nonspecific binding. Primary antibodies were then added, and the membranes were incubated overnight at 4 °C. The primary antibodies (Cell Signaling, Danvers, MA, USA) used included anti-β-ActinMouse mAb (1 : 5000), anti-Hsp90 Rabbit mAb (1 : 1000), anti-Hsp70 Mouse mAb (1 : 1000), anti-IGF1R Rabbit (1 : 1000), anti-CDK4 Rabbit (1 : 1000), anti-ERα Mouse mAb (1 : 1000), anti-Akt Rabbit mAb (1 : 1000), and anti-c-Raf Rabbit mAb (1 : 1000). Secondary antibodies included anti-rabbit IgG, HRP-linked antibody (1 : 10 000), and anti-mouse IgG, HRP-linked antibody (1 : 10 000), which were incubated with the membranes for 1 hour at room temperature. Following washes, SuperSignal™ West Femto Maximum Sensitivity Substrate (Thermo Fisher Scientific, Waltham, MA, USA) was applied. Visualization of the blots was performed using the UVITEC Cambridge Imaging System (UVITEC, Cambridge, UK), and densitometric analysis of the western blot bands was conducted using NineAlliance software. Relative protein densities were calculated in relation to β-actin, used as a loading control.
# Asp47Ala mutant of Hsp90 = biological target: Asp47Ala mutant of Hsp90; set-up: method as in PMID 31555737; details: cited from earlier work
# [3] = system: Ewing sarcoma cell line SK-N-MC; experiment: MTS cell viability (antiproliferative) assay in SK-N-MC; type: cell-based; details: Homo sapiens, SK-N-MC, 72 hours, mean ± SD
# Protocol: as §1, §2
structure (smiles),measurement,setting,value
"Cc1cc(C)c(S(=O)(=O)N(CC(=O)O)c2ccc(Nc3ccnc(N4CCCC4)n3)cc2)c(C)c1 [DDO-5936, reference compound]",Kd,wild-type Hsp90,3.86 µM
same,IC50,leukemia cell line THP-1,> 50 µM
same,inhibition at 50 µM,"[1]; MCF-7, at 50 μM, read-out: growth inhibition",17%
same,IC50,"[1]; MTS assay, 72 hours, mean ± SD",> 50 µM
same,ERα level,[2],downregulated
same,Kd,Asp47Ala mutant of Hsp90,> 100 µM
same,IC50,[3],> 50 µM
